In data set [1] the target is T1, human glucocorticoid receptor-α [GRX] isoform (Homo sapiens, UniProt P04150).
T1 construct: purchased Ligand Pharmaceuticals (San Diego, Calif.); host or cells: insect SF21 cells (baculovirus)
T1 sequence (P04150 1-777): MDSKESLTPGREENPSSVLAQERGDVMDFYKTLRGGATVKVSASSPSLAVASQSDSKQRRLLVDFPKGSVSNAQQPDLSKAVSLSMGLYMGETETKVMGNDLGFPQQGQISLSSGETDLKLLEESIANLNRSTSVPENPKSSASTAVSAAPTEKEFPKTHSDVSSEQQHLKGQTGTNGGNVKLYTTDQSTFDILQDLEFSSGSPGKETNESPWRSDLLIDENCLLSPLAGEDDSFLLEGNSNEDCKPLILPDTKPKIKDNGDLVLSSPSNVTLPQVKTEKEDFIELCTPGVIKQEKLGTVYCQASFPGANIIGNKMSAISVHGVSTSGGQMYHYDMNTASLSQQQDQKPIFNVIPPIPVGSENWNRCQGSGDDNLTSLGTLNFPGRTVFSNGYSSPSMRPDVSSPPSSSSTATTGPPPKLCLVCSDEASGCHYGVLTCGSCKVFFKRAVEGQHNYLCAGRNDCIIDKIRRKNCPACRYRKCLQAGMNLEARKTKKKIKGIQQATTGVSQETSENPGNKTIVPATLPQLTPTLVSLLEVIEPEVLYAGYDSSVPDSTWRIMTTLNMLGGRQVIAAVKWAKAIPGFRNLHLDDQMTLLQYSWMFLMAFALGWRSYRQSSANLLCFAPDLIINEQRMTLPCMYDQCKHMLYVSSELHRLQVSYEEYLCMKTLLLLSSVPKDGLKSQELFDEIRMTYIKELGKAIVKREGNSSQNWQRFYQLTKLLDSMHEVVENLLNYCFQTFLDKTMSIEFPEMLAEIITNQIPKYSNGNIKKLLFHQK
Description: Radioligand binding with human glucocorticoid receptor cytosol ([3H]-dexamethasone). The conditions noted are these: [3H]-Dex competition, 4° C. overnight, Cheng-Prusoff, read-out: Ki (nM) GR. An excerpt: (§1) The procedure described in Anal. Biochem. 1970, 37, 244-252, hereby incorporated by reference, was used. Briefly, cytosol preparations of human glucocorticoid receptor-α [GRX] isoform and human progesterone receptor-A [PRA] isoform were obtained from Ligand Pharmaceuticals (San Diego, Calif.). Both receptor cDNAs were cloned into baculovirus expression vectors and expressed in insect SF21 cells. [^3H]-dexamethasone (Dex, specific activity 82-86 Ci/mmole) and [^3H]-progesterone (Prog, specific activity 97-102 Ci/mmol) were purchased from Amersham Life Sciences (Arlington Heights, Ill.). Glass fiber type C multiscreen MAFC NOB plates were from Millipore (Burlington, Mass.). Hydroxyapatide Bio-Gel HTP gel was from Bio-Rad Laboratories (Hercules, Calif.). Tris(hydroxymethyl)aminomethane (Tris), ethylenediaminetetraacetic acid (EDTA), glycerol, dithiothreitol (DTT) and sodium moylybdate were obtained from Sigma Chemicals (St. Louis, Mo.). Microscint-20 scintillation fluid was from Packard Instrument (Meriden, Conn.).
(§2) Stock solutions (32 mM) of compounds were prepared in dimethylsulfoxide (DMSO), and 50× solutions of test compounds were prepared from the 32 mM solution with a 50:50 mixture of DMSO/ethanol. The 50× solution was then diluted with binding buffer that contained 10 mM Tri-HCl, 1.5 mM EDTA, 10% glycerol, 1 mM DTT, 20 mM sodium molybdate, pH 7.5 @ 4° C. 1% DMSO/ethanol was present in the binding assay.
GRX and PRA binding reactions were performed in Millipore Multiscreen plates. For GR binding assays, [^3H]-Dex (˜35,000 dpm (˜0.9 nM)), GRX cytosol (˜35 μg protein), test compounds and binding buffer were mixed in a total volume of 200 μL and incubated at 4° C. overnight in a plate shaker. Specific binding was defined as the difference between binding of [^3H]Dex in the absence and in the presence of 1 μM unlabelled Dex.
(§3) After an overnight incubation, 50 μL of hydroxyapatite (25% weight/volume) slurry were added to each well and plates were incubated for 10 min at […] in a plate shaker. Plates were suctioned with a Millipore vacuum manifold and each well was rinsed with 300 μL of ice-cold binding buffer. A 250 μL aliquot of Packard Microscint-20 was added to each well and the wells were shaken at room temperature for 20 minutes. The amount of radioactivity was determined with a Packard TopCount plate reader.
(§4) The concentration of test compounds that inhibited 50% of specific binding (IC50) was determined from a Hill analysis of the competitive binding experiments. The Ki of test compounds was determined using the Cheng-Prusoff equation Ki=IC50/(1+[L*]/[KL]) where L* is the concentration of radioligand and KL is the dissociation constant of the radioligand determined from saturation analysis. For GRX, KL was ˜1.5 nM, and for PRA, KL was ˜4.5 nM.

Data set [2] concerns the target T2, human progesterone receptor-A [PRA] isoform (Homo sapiens, UniProt P06401).
T2 construct: purchased Ligand Pharmaceuticals (San Diego, Calif.); host or cells: insect SF21 cells (baculovirus)
T2 sequence (P06401 1-769 isoform P06401-2): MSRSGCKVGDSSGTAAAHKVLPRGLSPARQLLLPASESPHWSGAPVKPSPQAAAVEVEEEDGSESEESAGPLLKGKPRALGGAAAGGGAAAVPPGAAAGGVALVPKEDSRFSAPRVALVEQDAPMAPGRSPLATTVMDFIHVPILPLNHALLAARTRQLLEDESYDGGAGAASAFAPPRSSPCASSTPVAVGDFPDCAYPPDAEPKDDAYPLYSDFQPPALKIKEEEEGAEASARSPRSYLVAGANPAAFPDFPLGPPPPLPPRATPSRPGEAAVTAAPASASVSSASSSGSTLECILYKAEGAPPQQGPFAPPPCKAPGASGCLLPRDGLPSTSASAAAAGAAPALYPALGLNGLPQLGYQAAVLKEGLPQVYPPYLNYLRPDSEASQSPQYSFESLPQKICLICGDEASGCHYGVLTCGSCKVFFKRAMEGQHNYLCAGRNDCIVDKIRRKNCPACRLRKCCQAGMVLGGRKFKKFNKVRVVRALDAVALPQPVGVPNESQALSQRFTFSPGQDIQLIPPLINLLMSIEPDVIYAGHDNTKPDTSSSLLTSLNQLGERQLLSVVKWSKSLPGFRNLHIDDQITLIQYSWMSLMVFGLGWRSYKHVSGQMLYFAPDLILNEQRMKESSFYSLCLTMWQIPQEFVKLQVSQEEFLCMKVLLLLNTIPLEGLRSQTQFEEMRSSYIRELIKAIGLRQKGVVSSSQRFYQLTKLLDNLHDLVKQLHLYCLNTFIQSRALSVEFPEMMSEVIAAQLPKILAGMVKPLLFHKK
The experiment in a line: Radioligand binding with human progesterone receptor cytosol ([3H]-progesterone). Conditions: [3H]Prog competition, 4° C. overnight, Cheng-Prusoff, read-out: Ki (nM) PR.
Description: as §1, §2
For PR binding assays, [^3H]Prog (˜36,000 dpm (˜0.8 nM)), PRA cytosol (˜40 μg protein), test compounds and binding buffer were mixed in a total volume of 200 μL and incubated at 4° C. at overnight in a plate shaker. Specific binding was defined as the difference between binding of [^3H]Prog in the absence and in the presence of 3 μM unlabelled Prog.
as §3, §4

This passage reports Ki and melting point results from US6380207B2, “Glucocortiocoid-selective antiinflammatory agents” (Abbott Laboratories, priority 1998, dated 2002).

Turning to `C=C1CC(C)(C)Nc2cc(OC)c3c(c21)C(c1cc(Cl)cc(Cl)c1)Oc1ccccc1-3` (stereo not drawn) [Example 4, 2,3,5-trihydro-11-methoxy-5-(3,5-dichlorophenyl)-2,2,4-dimethyl-4-methylene-1H-[1]benzopyrano[3,4-f]quinoline], the Ki amounted to 270 nM in data set [1] and 8600 nM in data set [2].
On the same counts, the results for `COc1cc2c(c3c1-c1ccccc1OC3c1cc(Cl)cc(Cl)c1)C(C)=CC(C)(C)N2` (stereo not drawn) [Example 3, 2,5-dihydro-11-methoxy-5-(3,5-dichlorophenyl)-2,2,4-trimethyl-1H-[1]benzopyrano[3,4-f]quinoline] are 200 nM and 10000 nM.
Take `C=CCC1Oc2ccccc2-c2c(OC)cc3c(c21)C(C)=CC(C)(C)N3` (stereo not drawn) [Example 2, 2,5-dihydro-11-methoxy-5-(2-propenyl)-2,2,4-trimethyl-1H-[1]benzopyrano[3,4-f]quinoline]: the melting point is 84 to 86 °C. For the same molecule, in data set [1], the Ki was found to be 640 nM. Also, the Ki in data set [2] came out at 14000 nM.
With `COc1cc2c(c3c1-c1ccccc1OC3c1ccccc1)C(C)=CC(C)(C)N2` (stereo not drawn) [Example 1, 2,5-dihydro-11-methoxy-5-phenyl-2,2,4-trimethyl-1H-[1]benzopyrano[3,4-f]quinoline], the values for the Ki in data set [1] and in data set [2] were 230 nM and 10000 nM, respectively.

In general, Ki refers to the dissociation constant of the complex between target and ligand, obtained from inhibition or displacement. One may read the melting point as the temperature, or range, at which the solid turns liquid.
